For the molecule `CCc1nc(/C=C/c2cn(-c3ccccc3)nc2OCc2ccc(OCc3nc(-c4cccc(C(=O)OC)c4)oc3C)c(OC)c2)cs1` [Example 225 (E form), methyl 3-[4-({4-[({4-[(E)-2-(2-ethyl-1,3-thiazol-4-yl)ethenyl]-1-phenyl-1H-pyrazol-3-yl}oxy)methyl]-2-methoxyphenoxy}methyl)-5-methyl-1,3-oxazol-2-yl]benzoate], the melting point – broadly, the temperature of the solid-liquid transition – lay in the range of 132 to 133 °C. The result for `CCc1nc(/C=C\c2cn(-c3ccccc3)nc2OCc2ccc(OCc3nc(-c4cccc(C(=O)OC)c4)oc3C)c(OC)c2)cs1` [Example 225 (Z form), methyl 3-[4-({4-[({4-[(Z)-2-(2-ethyl-1,3-thiazol-4-yl)ethenyl]-1-phenyl-1H-pyrazol-3-yl}oxy)methyl]-2-methoxyphenoxy}methyl)-5-methyl-1,3-oxazol-2-yl]benzoate] reads 125 to 126 °C; that for `COc1cc(COc2nn(-c3ccccc3)cc2C=O)ccc1OCc1nc(-c2cccnc2)oc1C` [Example 227, 3-({3-methoxy-4-[(5-methyl-2-pyridin-3-yl-1,3-oxazol-4-yl)methoxy]benzyl}oxy)-1-phenyl-1H-pyrazole-4-carbaldehyde], 161 to 162 °C. In the case of `CCc1nc(/C=C/c2cn(-c3ccccc3)nc2OCc2ccc(OCc3nc(N4CCOCC4)sc3C)c(OC)c2)cs1` [Example 232 (E form), 4-[4-({4-[({4-[(E)-2-(2-ethyl-1,3-thiazol-4-yl)ethenyl]-1-phenyl-1H-pyrazol-3-yl}oxy)methyl]-2-methoxyphenoxy}methyl)-5-methyl-1,3-thiazol-2-yl]morpholine], the melting point lay in the range of 76 to 78 °C.

Take `CCc1nc(/C=C\c2cn(-c3ccccc3)nc2OCc2ccc(OCc3nc(N4CCOCC4)sc3C)c(OC)c2)cs1` [Example 232 (Z form), 4-[4-({4-[({4-[(Z)-2-(2-ethyl-1,3-thiazol-4-yl)ethenyl]-1-phenyl-1H-pyrazol-3-yl}oxy)methyl]-2-methoxyphenoxy}methyl)-5-methyl-1,3-thiazol-2-yl]morpholine]: the melting point was in the range of 112 to 114 °C. For `Cc1oc(-c2ccccc2)nc1COc1ccc(C(=O)Nc2nn(-c3ccccc3)cc2C=O)cc1` [Example 233, N-(4-formyl-1-phenyl-1H-pyrazol-3-yl)-4-[(5-methyl-2-phenyl-1,3-oxazol-4-yl)methoxy]benzamide] the value was 185 to 186 °C; for `COc1cc(COc2nn(-c3ccccc3)cc2C=O)ccc1OCc1nc(-c2cccc(O)c2)oc1C` [Example 234, 3-[(4-{[2-(3-hydroxyphenyl)-5-methyl-1,3-oxazol-4-yl]methoxy}-3-methoxybenzyl)oxy]-1-phenyl-1H-pyrazole-4-carbaldehyde], 193 to 194 °C; for `COC(=O)COc1cccc(-c2nc(COc3ccc(COc4nn(-c5ccccc5)cc4C=O)cc3OC)c(C)o2)c1` [Example 235, methyl (3-{4-[(4-{[(4-formyl-1-phenyl-1H-pyrazol-3-yl)oxy]methyl}-2-methoxyphenoxy)methyl]-5-methyl-1,3-oxazol-2-yl}phenoxy)acetate], 107 to 109 °C.

The molecule `COC(=O)c1cccc(-c2nc(COc3ccc(COc4nn(-c5ccccc5)cc4C=O)cc3)c(C)o2)c1` [Example 237, methyl 3-{4-[(4-{[(4-formyl-1-phenyl-1H-pyrazol-3-yl)oxy]methyl}phenoxy)methyl]-5-methyl-1,3-oxazol-2-yl}benzoate] returned a melting point of 161 to 162 °C. The result for `COc1cc(COc2nn(-c3ccccc3)cc2C=O)ccc1OCc1nc(N2CCOCC2)sc1C` [Example 238, 3-({3-methoxy-4-[(5-methyl-2-morpholin-4-yl-1,3-thiazol-4-yl)methoxy]benzyl}oxy)-1-phenyl-1H-pyrazole-4-carbaldehyde] reads 149 to 150 °C; that for `CCc1nc(/C=C/c2cn(-c3ccccc3)nc2OCc2ccc(OCc3nc(-c4ccc(C(=O)O)o4)oc3C)c(OC)c2)cs1` [Example 242, 5-[4-({4-[({4-[(E)-2-(2-ethyl-1,3-thiazol-4-yl)ethenyl]-1-phenyl-1H-pyrazol-3-yl}oxy)methyl]-2-methoxyphenoxy}methyl)-5-methyl-1,3-oxazol-2-yl]-2-furancarboxylic acid], 154 to 155 °C. As for `CCOC(=O)c1ccc(-c2nc(COc3ccc(COc4nn(-c5ccccc5)cc4C=O)cc3OC)c(C)o2)o1` [Example 243, ethyl 5-{4-[(4-{[(4-formyl-1-phenyl-1H-pyrazol-3-yl)oxy]methyl}-2-methoxyphenoxy)methyl]-5-methyl-1,3-oxazol-2-yl}-2-furancarboxylate], the melting point lay within 143 to 145 °C.

`CCOC(=O)c1ccc(-c2nc(COc3ccc(COc4nn(-c5ccccc5)cc4/C=C/c4csc(CC)n4)cc3OC)c(C)o2)o1` [Example 244 (E form), ethyl 5-[4-({4-[({4-[(E)-2-(2-ethyl-1,3-thiazol-4-yl)ethenyl]-1-phenyl-1H-pyrazol-3-yl}oxy)methyl]-2-methoxyphenoxy}methyl)-5-methyl-1,3-oxazol-2-yl]-2-furancarboxylate] displayed a melting point of 150 to 151 °C.

Molecule `CCOC(=O)c1ccc(-c2nc(COc3ccc(COc4nn(-c5ccccc5)cc4/C=C\c4csc(CC)n4)cc3OC)c(C)o2)o1` [Example 244 (Z form), ethyl 5-[4-({4-[({4-[(Z)-2-(2-ethyl-1,3-thiazol-4-yl)ethenyl]-1-phenyl-1H-pyrazol-3-yl}oxy)methyl]-2-methoxyphenoxy}methyl)-5-methyl-1,3-oxazol-2-yl]-2-furancarboxylate] returned a melting point of 133 to 135 °C.

`COc1cc(C(=O)Nc2nn(-c3ccccc3)cc2C=O)ccc1OCc1nc(-c2ccccc2)oc1C` [Example 245, N-(4-formyl-1-phenyl-1H-pyrazol-3-yl)-3-methoxy-4-[(5-methyl-2-phenyl-1,3-oxazol-4-yl)methoxy]benzamide]: the melting point fell in the range of 234 to 235 °C.

In the case of `CCOC(=O)Cc1ccc(-c2nc(COc3ccc(COc4nn(-c5ccccc5)cc4C=O)cc3OC)c(C)o2)cc1` [Example 246, ethyl (4-{4-[(4-{[(4-formyl-1-phenyl-1H-pyrazol-3-yl)oxy]methyl}-2-methoxyphenoxy)methyl]-5-methyl-1,3-oxazol-2-yl}phenyl)acetate], the melting point lay within 157 to 158 °C. The result for `CCOC(=O)Cc1cccc(-c2nc(COc3ccc(COc4nn(-c5ccccc5)cc4C=O)cc3OC)c(C)o2)c1` [Example 253, ethyl (3-{4-[(4-{[(4-formyl-1-phenyl-1H-pyrazol-3-yl)oxy]methyl}-2-methoxyphenoxy)methyl]-5-methyl-1,3-oxazol-2-yl}phenyl)acetate] reads 145 to 146 °C; that for `COC(=O)c1cc(-c2nc(COc3ccc(COc4nn(-c5ccccc5)cc4C=O)cc3OC)c(C)o2)ccc1OS(C)(=O)=O` [Example 255, methyl 5-{4-[(4-{[(4-formyl-1-phenyl-1H-pyrazol-3-yl)oxy]methyl}-2-methoxyphenoxy)methyl]-5-methyl-1,3-oxazol-2-yl}-2-(methanesulfonyloxy)benzoate], 136 to 137 °C; that for `COC(=O)c1cc(-c2nc(COc3ccc(COc4nn(-c5ccccc5)cc4C=O)cc3OC)c(C)o2)ccc1OC` [Example 256, methyl 5-{4-[(4-{[(4-formyl-1-phenyl-1H-pyrazol-3-yl)oxy]methyl}2-methoxyphenoxy)methyl]-5-methyl-1,3-oxazol-2-yl}-2-methoxybenzoate], 165 to 166 °C. For `CCOC(=O)/C=C/c1nc(-c2ccccc2)oc1COc1ccc(OCc2nc(-c3ccccc3)oc2C)cc1` [Example 258, ethyl (2E)-3-[5-({4-[(5-methyl-2-phenyl-1,3-oxazol-4-yl)methoxy]phenoxy}methyl)-2-phenyl-1,3-oxazol-4-yl]-2-propenoate] the value was 107 to 108 °C; for `CCOC(=O)/C=C/c1cn(Cc2ccccc2)nc1OCc1ccc(OCc2nc(-c3ccco3)oc2C)c(OC)c1` [Example 259, ethyl (2E)-3-{1-benzyl-3-[(4-{[2-(2-furyl)-5-methyl-1,3-oxazol-4-yl]methoxy}-3-methoxybenzyl)oxy]-1H-pyrazol-4-yl}-2-propenoate], 147 to 148 °C; for `COc1cc(COc2nn(Cc3ccccc3)cc2/C=C/C(=O)O)ccc1OCc1nc(-c2ccco2)oc1C` [Example 260, (2E)-3-{1-benzyl-3-[(4-{[2-(2-furyl)-5-methyl-1,3-oxazol-4-yl]methoxy}-3-methoxybenzyl)oxy]-1H-pyrazol-4-yl}-2-propenoic acid], 175 to 176 °C. For `Cc1oc(-c2ccccc2)nc1COc1ccc(OCc2oc(-c3ccccc3)nc2/C=C/C(=O)O)cc1` [Example 261, (2E)-3-[5-({4-[(5-methyl-2-phenyl-1,3-oxazol-4-yl)methoxy]phenoxy}methyl)-2-phenyl-1,3-oxazol-4-yl]-2-propenoic acid] the value was 209 to 210 °C; for `COc1cc(COc2nn(-c3ccccc3)cc2/C=C2\SC(=O)NC2=O)ccc1OCc1nc(-c2ccco2)oc1C` [Example 262, (5Z)-5-({3-[(4-{[2-(2-furyl)-5-methyl-1,3-oxazol-4-yl]methoxy}-3-methoxybenzyl)oxy]-1-phenyl-1H-pyrazol-4-yl}methylene)-1,3-thiazolidine-2,4-dione], 252 to 253 °C. Regarding `CCOC(=O)c1cnc(-c2ccccc2)nc1OCc1ccc(OCc2nc(-c3ccco3)oc2C)c(OC)c1` [Example 263, ethyl 4-[(4-{[2-(2-furyl)-5-methyl-1,3-oxazol-4-yl]methoxy}-3-methoxybenzyl)oxy]-2-phenylpyrimidine-5-carboxylate], the melting point lay in the range of 142 to 143 °C. As for `CCOC(=O)c1cn(C)nc1OCc1ccc(OCc2nc(-c3ccccc3)oc2C)c(OC)c1` [Example 264, ethyl 3-{[3-methoxy-4-(5-methyl-2-phenyl-1,3-oxazol-4-ylmethoxy)benzyl]oxy}-1-methyl-1H-pyrazole-4-carboxylate], the melting point lay within 134 to 135 °C.

As to `COc1cc(COc2nn(C)cc2C(=O)O)ccc1OCc1nc(-c2ccccc2)oc1C` [Example 265, 3-{[3-methoxy-4-(5-methyl-2-phenyl-1,3-oxazol-4-ylmethoxy)benzyl]oxy}-1-methyl-1H-pyrazole-4-carboxylic acid], the melting point lay within 169 to 170 °C.

The values are drawn from patent US7368578B2, “Five-membered heterocyclic compounds” (Takeda Pharmaceutical Company Limited, priority 2002, dated 2008).
